Where no end group is shown, it is not given here.
Columns and labels:
adenylate cyclase [1] = conditions: relative to glucagon = 100; liver membranes
Experimental: Adenylate Cyclase Assay. The assay on liver membranes was performed according to Salomon et al. [Salomon, Y., Londos, C. & Rodbell, M. Anal. Biochem. 58, 541,548 (1974)]. The released cAMP was mixed with [8-^3 H]cAMP measured with a high affinity cAMP binding protein.
The purpose of the adenylate cyclase assays is to measure the ability of the compound under test to stimulate the activity of adenylate cyclase. The assays are used to measure relative potency, maximum activity and inhibition index.
The inhibition index, defined above, was determined from adenylate cyclase assays by two different protocols.
2. […] Increasing amounts of antagonist were then added and the concentration that reduced the response to 45% of maximum was determined.

adenylate cyclase [2] = conditions: prior-art antagonist; cited from earlier work
hepatocyte membrane = conditions: prior-art antagonist; cited from earlier work
glucagon receptor = conditions: prior-art antagonist; cited from earlier work

Compound	ADENYL CYCLASE ASSAYS Rel. Potency (adenylate cyclase [1])	activation of adenylate cyclase (in words) (adenylate cyclase [2])	activation of another binding system leading to inositol triphosphate and calcium ions (in words) (hepatocyte membrane)	binding to the glucagon receptor (in words) (glucagon receptor)
CSCC[C@H](NC(=O)[C@H](CC(C)C)NC(=O)[C@H](Cc1c[nH]c2ccccc12)NC(=O)[C@H](CCC(N)=O)NC(=O)[C@@H](NC(=O)[C@H](Cc1ccccc1)NC(=O)[C@H](CC(=O)O)NC(=O)[C@H](CCC(N)=O)NC(=O)[C@H](C)NC(=O)[C@H](CCCNC(=N)N)NC(=O)[C@H](CCCNC(=N)N)NC(=O)[C@H](CO)NC(=O)[C@H](CC(=O)O)NC(=O)[C@H](CC(C)C)NC(=O)[C@H](Cc1ccc(O)cc1)NC(=O)[C@H](CCCCN)NC(=O)[C@H](CO)NC(=O)[C@H](Cc1ccc(O)cc1)NC(=O)[C@H](CCC(=O)O)NC(=O)[C@H](CO)NC(=O)[C@@H](NC(=O)[C@H](Cc1ccccc1)NC(=O)[C@@H](NC(=O)CNC(=O)[C@H](CCC(N)=O)NC(=O)[C@@H](N)CO)[C@@H](C)O)[C@@H](C)O)C(C)C)C(=O)N[C@@H](CC(N)=O)C(=O)N[C@H](C(N)=O)[C@@H](C)O [Compound 2, des-His^1-[Glu^9] glucagon amide]	< 0.0001			
SQGTFTSEYSKYLDSKKAQEFVQWLMNT [Compound 3, des-His^1-[Glu^9 -Lys^17,18 Glu^21] glucagon]	0.0001			
Nα- trinitrophenyl [12-homoarginine] glucagon		without significant activation	activates another binding system	does bind to the glucagon receptor
CSCC[C@H](NC(=O)[C@H](CC(C)C)NC(=O)[C@H](Cc1c[nH]c2ccccc12)NC(=O)[C@H](CCC(N)=O)NC(=O)[C@@H](NC(=O)[C@H](Cc1ccccc1)NC(=O)[C@H](CC(=O)O)NC(=O)[C@H](CCC(N)=O)NC(=O)[C@H](C)NC(=O)[C@H](CCCNC(=N)N)NC(=O)[C@H](CCCNC(=N)N)NC(=O)[C@H](CO)NC(=O)[C@H](CC(=O)O)NC(=O)[C@H](CC(C)C)NC(=O)[C@H](Cc1ccc(O)cc1)NC(=O)[C@H](CCCCN)NC(=O)[C@H](CO)NC(=O)[C@H](Cc1ccc(O)cc1)NC(=O)[C@H](CCC(=O)O)NC(=O)[C@H](CO)NC(=O)[C@@H](NC(=O)[C@H](Cc1ccccc1)NC(=O)[C@@H](NC(=O)CNC(=O)[C@H](CCC(N)=O)NC(=O)[C@@H](N)CO)[C@@H](C)O)[C@@H](C)O)C(C)C)C(=O)N[C@@H](CC(N)=O)C(=O)N[C@H](C(=O)O)[C@@H](C)O [Compound 1, des-His^1-[Glu^9] glucagon]	< 0.0008			

— US4879273A (The Rockefeller University, priority 1987, dated 1989)
